Tests used:
FtFBPaseII [1] = target: T1, FtFBPaseII (Francisella tularensis, UniProt Q5NEJ8); assay: biochemical; conditions: read-out: % inhibition at 1 mM
T1 construct: gene gplX

FtFBPaseII [2] = target: T1, FtFBPaseII

T1 sequence (Q5NEJ8 1-328): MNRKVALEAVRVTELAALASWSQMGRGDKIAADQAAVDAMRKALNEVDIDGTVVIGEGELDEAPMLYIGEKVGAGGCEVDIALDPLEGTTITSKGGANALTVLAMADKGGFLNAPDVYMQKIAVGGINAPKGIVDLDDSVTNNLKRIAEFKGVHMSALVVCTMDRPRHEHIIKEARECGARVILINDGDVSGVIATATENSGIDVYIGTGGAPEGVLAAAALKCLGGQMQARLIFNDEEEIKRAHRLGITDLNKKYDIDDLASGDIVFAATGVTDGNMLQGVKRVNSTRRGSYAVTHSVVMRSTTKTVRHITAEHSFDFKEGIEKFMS

Row | SMILES | inhibition at 1000 µM (FtFBPaseII [1]) | % inhibition at 150 μM (FtFBPaseII [2])
1 | Nc1ncnc2c1ncn2[C@@H]1O[C@H](COP(=O)(O)OP(=O)(O)O)[C@@H](O)[C@H]1O [Adenosine diphosphate] | 28% | 
2 | O=P(O)(O)O [phosphate] |  | 69%
